The values below come from ChEMBL document CHEMBL5465560, “Selectivity Literature for EUbOPEN Chemogenomic Library” (2024).

Assay [1] concerns the target Serine/threonine-protein kinase NIM1 (Homo sapiens, UniProt Q8IY84). Nature of the assay: Selectivity interaction (KinomeScan (DiscoverX)) EUB0000607a NIM1K. The settings on record: at 10 µM.
The target in assay [2] is Serine/threonine-protein kinase pim-1 (Homo sapiens, UniProt P11309). Nature of the assay: Selectivity interaction (KinomeScan (DiscoverX)) EUB0000607a PIM1. As to conditions: at 10 µM.
Assay [3] has as its target T1, Inhibitor of nuclear factor kappa-B kinase subunit epsilon (Homo sapiens) (UniProt Q14164).
T1 sequence (whole entry): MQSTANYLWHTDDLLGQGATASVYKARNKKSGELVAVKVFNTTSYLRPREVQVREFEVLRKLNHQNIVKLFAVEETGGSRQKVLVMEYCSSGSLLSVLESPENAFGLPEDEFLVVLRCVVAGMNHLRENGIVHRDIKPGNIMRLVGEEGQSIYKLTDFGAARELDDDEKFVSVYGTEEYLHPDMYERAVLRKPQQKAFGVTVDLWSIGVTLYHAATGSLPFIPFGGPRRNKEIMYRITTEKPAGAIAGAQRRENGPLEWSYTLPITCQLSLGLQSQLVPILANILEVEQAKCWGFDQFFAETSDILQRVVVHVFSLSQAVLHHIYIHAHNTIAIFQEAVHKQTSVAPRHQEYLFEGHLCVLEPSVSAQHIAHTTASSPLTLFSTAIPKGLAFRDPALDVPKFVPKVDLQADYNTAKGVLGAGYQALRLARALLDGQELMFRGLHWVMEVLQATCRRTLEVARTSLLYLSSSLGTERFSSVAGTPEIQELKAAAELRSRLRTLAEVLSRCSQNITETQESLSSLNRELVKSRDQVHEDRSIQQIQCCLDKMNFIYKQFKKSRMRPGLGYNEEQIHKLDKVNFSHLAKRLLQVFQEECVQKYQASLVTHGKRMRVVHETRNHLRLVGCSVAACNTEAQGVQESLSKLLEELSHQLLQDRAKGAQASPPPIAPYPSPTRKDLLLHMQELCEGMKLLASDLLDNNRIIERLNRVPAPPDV
As to conditions: at 10 µM.

Assay [4] deals with T2, Muscle, skeletal receptor tyrosine-protein kinase (Homo sapiens) (UniProt O15146).
T2 sequence (whole entry): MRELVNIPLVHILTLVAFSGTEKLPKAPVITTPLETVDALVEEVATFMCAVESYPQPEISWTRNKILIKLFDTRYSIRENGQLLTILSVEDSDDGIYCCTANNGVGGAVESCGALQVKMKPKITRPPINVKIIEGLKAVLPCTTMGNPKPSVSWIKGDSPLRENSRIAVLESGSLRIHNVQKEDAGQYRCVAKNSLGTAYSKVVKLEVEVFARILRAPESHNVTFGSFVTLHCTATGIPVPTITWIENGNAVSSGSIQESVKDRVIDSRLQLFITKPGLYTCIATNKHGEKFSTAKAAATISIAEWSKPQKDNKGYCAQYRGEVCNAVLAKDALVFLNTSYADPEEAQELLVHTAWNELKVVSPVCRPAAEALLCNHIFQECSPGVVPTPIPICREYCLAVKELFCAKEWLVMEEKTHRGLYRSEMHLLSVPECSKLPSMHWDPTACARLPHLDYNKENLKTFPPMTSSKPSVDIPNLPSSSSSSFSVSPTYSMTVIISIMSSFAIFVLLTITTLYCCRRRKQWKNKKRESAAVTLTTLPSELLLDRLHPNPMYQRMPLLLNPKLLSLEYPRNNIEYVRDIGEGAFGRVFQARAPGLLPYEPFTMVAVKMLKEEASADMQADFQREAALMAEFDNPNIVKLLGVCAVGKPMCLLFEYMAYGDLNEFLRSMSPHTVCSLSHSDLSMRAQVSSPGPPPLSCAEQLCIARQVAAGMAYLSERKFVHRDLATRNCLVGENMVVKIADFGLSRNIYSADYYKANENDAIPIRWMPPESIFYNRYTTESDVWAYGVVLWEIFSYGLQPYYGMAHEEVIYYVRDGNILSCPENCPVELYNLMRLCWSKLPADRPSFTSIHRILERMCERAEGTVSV
Kind of assay: Selectivity interaction (KinomeScan (DiscoverX)) EUB0001049a MUSK. As to conditions: at 1 µM.

The target in assay [5] is RAC-beta serine/threonine-protein kinase (Homo sapiens) (UniProt P31751). Kind of assay: Selectivity interaction (KinomeScan (DiscoverX)) EUB0000092b AKT2. The settings on record: at 10 µM.
The target in assay [6] is Serine/threonine-protein kinase 16 (Homo sapiens, UniProt O75716). Nature of the assay: Selectivity interaction (KinomeScan (DiscoverX)) EUB0001868a STK16. As to conditions: at 1 µM.
The subject of assay [7] is Tyrosine-protein kinase ABL1 (Homo sapiens), P00519 [F317L]. Nature of the assay: (§1) Selectivity interaction (KinomeScan (DiscoverX)) EUB0000045b ABL1.
Assay [8] deals with Tyrosine-protein kinase ABL1 (Homo sapiens), P00519 [H396P]. The description is as §1.
The test system of assay [9] is Tyrosine-protein kinase ABL1 (Homo sapiens), P00519 [Y253F]. The assay is described as §1.
In assay [10] the test system is Tyrosine-protein kinase ABL1 (Homo sapiens), P00519 [E255K]. Described as §1.
The test system of assay [11] is Tyrosine-protein kinase ABL1 (Homo sapiens), P00519 [Q252H]. Described as §1.
The target in assay [12] is Tyrosine-protein kinase ABL1 (Homo sapiens, UniProt P00519). The assay is described as §1.
The test system of assay [13] is Tyrosine-protein kinase ABL1 (Homo sapiens), P00519 [T315I]. Described as §1.
In assay [14] the test system is Tyrosine-protein kinase ABL1 (Homo sapiens), P00519 [M351T]. The assay is described as §1.
Assay [15] relates to Tyrosine-protein kinase ABL1 (Homo sapiens), P00519 [F317I]. The description is as §1.
The target of assay [16] is T3, Dual specificity mitogen-activated protein kinase kinase 4 (Homo sapiens) (UniProt P45985).
T3 sequence (whole entry): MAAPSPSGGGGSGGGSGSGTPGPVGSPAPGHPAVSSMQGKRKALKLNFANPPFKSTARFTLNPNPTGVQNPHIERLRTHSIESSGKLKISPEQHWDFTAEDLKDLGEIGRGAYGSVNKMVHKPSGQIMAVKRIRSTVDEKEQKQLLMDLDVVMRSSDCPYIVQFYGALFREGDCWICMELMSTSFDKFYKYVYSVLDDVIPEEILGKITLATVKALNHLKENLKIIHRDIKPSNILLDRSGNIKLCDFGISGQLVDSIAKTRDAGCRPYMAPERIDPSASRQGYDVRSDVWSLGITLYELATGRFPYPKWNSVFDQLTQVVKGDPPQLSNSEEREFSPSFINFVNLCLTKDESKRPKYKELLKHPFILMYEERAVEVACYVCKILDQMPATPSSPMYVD
Kind of assay: Selectivity interaction (Upstate Kinase Profiler service (Millipore)) EUB0000056c MAP2K4. The settings on record: at 1 µM.

Assay [17] concerns the target Activin receptor type-2B (Homo sapiens) (UniProt Q13705). The settings on record: at 10 µM.

Sequence of Serine/threonine-protein kinase NIM1 (Q8IY84 whole entry): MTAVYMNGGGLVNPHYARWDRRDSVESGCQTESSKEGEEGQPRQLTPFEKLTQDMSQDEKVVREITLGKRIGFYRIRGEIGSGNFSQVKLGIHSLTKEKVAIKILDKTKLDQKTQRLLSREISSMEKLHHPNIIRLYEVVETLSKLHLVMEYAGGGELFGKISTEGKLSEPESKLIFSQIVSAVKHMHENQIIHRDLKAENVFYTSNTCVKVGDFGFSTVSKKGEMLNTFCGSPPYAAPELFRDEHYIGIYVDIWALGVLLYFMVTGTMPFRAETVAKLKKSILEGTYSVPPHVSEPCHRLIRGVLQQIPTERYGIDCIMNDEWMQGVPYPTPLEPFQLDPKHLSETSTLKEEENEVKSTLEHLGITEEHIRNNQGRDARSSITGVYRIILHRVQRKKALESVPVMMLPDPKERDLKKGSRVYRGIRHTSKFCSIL
Sequence of Activin receptor type-2B (Homo sapiens) (Q13705 whole entry): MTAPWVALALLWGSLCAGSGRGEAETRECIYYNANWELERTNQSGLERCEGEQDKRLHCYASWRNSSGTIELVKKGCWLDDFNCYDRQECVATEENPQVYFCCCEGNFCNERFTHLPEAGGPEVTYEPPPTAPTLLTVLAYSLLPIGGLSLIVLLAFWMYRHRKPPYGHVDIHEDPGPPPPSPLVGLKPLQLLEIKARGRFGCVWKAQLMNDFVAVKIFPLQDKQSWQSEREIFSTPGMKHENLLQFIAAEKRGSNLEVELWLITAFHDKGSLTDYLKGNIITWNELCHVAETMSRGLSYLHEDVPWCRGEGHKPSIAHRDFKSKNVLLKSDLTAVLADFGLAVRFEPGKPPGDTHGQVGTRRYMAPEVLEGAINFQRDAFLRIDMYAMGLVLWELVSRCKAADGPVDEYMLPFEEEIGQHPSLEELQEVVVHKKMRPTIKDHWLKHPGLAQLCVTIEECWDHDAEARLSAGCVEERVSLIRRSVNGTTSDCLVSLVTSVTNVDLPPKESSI
Sequence of Serine/threonine-protein kinase 16 (O75716 whole entry): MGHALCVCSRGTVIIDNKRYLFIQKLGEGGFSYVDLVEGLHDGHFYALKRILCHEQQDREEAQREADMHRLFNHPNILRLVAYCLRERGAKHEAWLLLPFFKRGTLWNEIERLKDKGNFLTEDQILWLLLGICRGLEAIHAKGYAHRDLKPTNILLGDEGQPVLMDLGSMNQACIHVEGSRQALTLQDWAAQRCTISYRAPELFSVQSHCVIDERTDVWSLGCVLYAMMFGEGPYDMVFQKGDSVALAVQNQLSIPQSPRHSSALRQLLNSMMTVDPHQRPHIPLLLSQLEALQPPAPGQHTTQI
Sequence of Serine/threonine-protein kinase pim-1 (P11309 whole entry, looked up): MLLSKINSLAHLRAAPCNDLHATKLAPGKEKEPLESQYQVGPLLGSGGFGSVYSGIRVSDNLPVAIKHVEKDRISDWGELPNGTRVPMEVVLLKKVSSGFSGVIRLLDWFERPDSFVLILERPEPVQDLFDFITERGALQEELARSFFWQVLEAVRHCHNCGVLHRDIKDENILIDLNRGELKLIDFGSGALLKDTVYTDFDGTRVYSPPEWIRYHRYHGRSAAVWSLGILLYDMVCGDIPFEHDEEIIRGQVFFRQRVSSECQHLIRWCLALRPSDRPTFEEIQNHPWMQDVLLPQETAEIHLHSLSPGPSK
Sequence of RAC-beta serine/threonine-protein kinase (Homo sapiens) (P31751 whole entry): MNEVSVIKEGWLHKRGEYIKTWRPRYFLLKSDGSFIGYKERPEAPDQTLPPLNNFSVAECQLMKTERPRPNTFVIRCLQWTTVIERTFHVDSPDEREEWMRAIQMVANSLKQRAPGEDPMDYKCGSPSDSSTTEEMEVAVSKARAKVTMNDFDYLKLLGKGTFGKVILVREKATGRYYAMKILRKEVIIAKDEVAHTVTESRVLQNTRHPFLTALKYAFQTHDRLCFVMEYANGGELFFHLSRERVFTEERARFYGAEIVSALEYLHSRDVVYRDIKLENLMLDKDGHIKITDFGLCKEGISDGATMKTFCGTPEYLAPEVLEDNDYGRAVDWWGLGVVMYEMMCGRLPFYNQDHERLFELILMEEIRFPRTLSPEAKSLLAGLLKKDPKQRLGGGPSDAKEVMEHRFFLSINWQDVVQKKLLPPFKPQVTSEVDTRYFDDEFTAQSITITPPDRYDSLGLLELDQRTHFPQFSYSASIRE

Consider `CNC(=O)Nc1ccc(-c2nc(N3CC4CCC(C3)O4)c3cnn(C4CCC5(CC4)OCCO5)c3n2)cc1`, for which the % of control in assay [1] and in assay [2] was 100% in each case.

In assay [3], `Cc1cc([C@@H](C)Nc2ccccc2C(=O)O)c2nc(N3CCOCC3)cc(=O)n2c1` [AZD-6482] registered a % of control of 85%.

Molecule `COc1cc(Nc2nc(C)cc(-c3cnn4nc(OC)ccc34)n2)cc(C(F)(F)F)c1` displayed a % of control in [4] of 100%.

With `CCC(=O)N1CCN(c2ccc(-n3c(=O)ccc4cnc5ccc(-c6cnc7ccccc7c6)cc5c43)cc2C(F)(F)F)CC1`, the % of control in [5] is 100%.

In assay [6], `Cc1cc(-c2ccnc(Nc3cnn(C)c3)n2)ccc1CNC(=O)N1CC(OC(C)C)C1` yielded a % of control of 23%.

Regarding `C=CC(=O)Nc1cc(-n2c(=O)ccc3cnc4ccc(-c5ccc(NS(C)(=O)=O)cc5)cc4c32)ccc1C`, the % of control in assay [7] (at 1 µM) is 100%; in assay [7] (at 10 µM), 100%; in assay [8] (at 1 µM), 100%; in [8] (at 10 µM), 100%; in assay [9] (at 1 µM) it was 100%; in assay [9] (at 10 µM), 76%. Further, the % of control was 63% in [10] (at 1 µM); 77% in assay [10] (at 10 µM); 100% in assay [11] (at 1 µM); 100% in assay [11] (at 10 µM); 100% in [12] (at 1 µM); 73% in [12] (at 10 µM). Also, the % of control came to 100% in [13] (at 1 µM); 100% in assay [13] (at 10 µM); 90% in [14] (at 1 µM); 86% in assay [14] (at 10 µM); 100% in assay [15] (at 1 µM); 100% in assay [15] (at 10 µM).

In [16], `Cc1ccc(-c2ccc3c(ccc4sc5c(c43)NC[C@@H](C)NC5=O)n2)cn1` came in with a % of inhibition of 19%.

In turn, `COCC(=O)NC/C=C/c1ccc2ncnc(Nc3ccc(Oc4ccc(C)nc4)c(C)c3)c2c1` [CP-724714] showed a % of control in assay [17] of 100%.
